Experimental data: patent publication US12491199B2, “Polycannabinoids, compounds, compositions and methods of use” (priority 2020, dated 2025)
“Also recorded” adds a separate entry of the source. Like-named read-outs stand apart in the source and are kept apart here.

What was measured:
Assay type in all cases: physicochemical
[1] = Non-isothermal thermogravimetric analysis (TGA), onset of thermal degradation
Protocol: (§1) Materials and Methods: Cannabidiol (CBD) was purchased from EcoGen BioSciences and used as received. Cannabigerol (CBG) was purchased from Mile High Labs, Inc and used as received. All other chemicals were purchased from Sigma Aldrich and used without further purification unless otherwise noted. Unless otherwise indicated, ^1H NMR was collected using a Bruker AVANCE 500 MHz instrument. Thermo Gravimetric Analysis was conducted using a TA Instruments TGA Q-500 and DSC was collected using a TA Instruments DSC Q-20. GPC was taken using a WATERS GPC equipped with a 1515 HPLC Pump and Waters 717Plus Autoinjector. Ultra Performance Liquid Chromatograph tandem Mass Spectrometry (UPLC/MS/MS) was conducted using a Waters Acquity UPLC-TQD equipped with a PDA detector.
Thermogravimetric Analysis (TGA): Non-Isothermal degradation: Samples were heated in pre-tared platinum pans under nitrogen atmosphere to 700° C. at a heating rate of 10° C./minute.

[2] = Isothermal degradation by TGA in the presence of oxygen; details: 60 minutes
Protocol: as §1
Isothermal degradation: Samples were heated in pre-tared pans while in the presence of oxygen to either 150, 160, 180 or 220° C. at a heating rate of 10° C./minute. They were left at the high temperature for 60 minutes. The degradation rate was determined from the slope of the weight % vs Time plots.

[3] = Heat induced by-product analysis (open vials, 175° C., 30 minutes, convection oven; NMR, UPLC/MS/MS); details: for remaining residue after heating: 100 mg sample, open vial, convection oven; for remaining residue after heating / NMR analysis of the sample residues after heating / amount of by-product formation (LC/MS): 175° C., 30 minutes
Protocol: Heat induced by-product analysis experiment: Open vials containing 100 mg of CBD, CBD-Diacetate, and Poly(CBD) were heated at 175° C. for 30 minutes in a laboratory convection oven. After heating, the remaining residue was weighed at 89.64 mg, 91.35 mg, and 99.86 mg for each compound, respectively. Samples were then analyzed using ^1H NMR. […] Ultra performance liquid chromatograph tandem mass spectrometry (UPLC/MS/MS) was conducted to compare formed by-products against nine known cannabinoid standards.
Popular types of consumer cannabis products include tinctures, vaporizer liquids, and baked foods, while potential pharmaceutical products include oil extracts, solutions, and tablet. In each case, cannabinoids within the products are subjected to elevated temperatures for short periods of time during manufacturing or, in the case of vaporizer liquids, when being consumed. FIGS. 5-6 show the rates of degradation after short-term exposure to temperatures from 150-220° C. Table 1 includes the values of onset temperatures for thermal degradation and degradation rates for each compound. The phytocannabinoids degraded at rates from 0.2 wt % per minute to ˜10 wt % per minute at 150° C. and 220° C., respectively. Thermal degradation of both poly(cannabinoid)s remained less than 0.1 wt % over the same range, stabilizing the phytocannabinoid. Open vials containing 100 mg samples of CBD, CBD-diacetate, and poly(CBD-adipate) were heated at 175° C. in a laboratory convection oven for 30 minutes, after which 89.64 mg, 91.35, and 99.86 mg remained of each sample, respectfully. […]. Conversion of phytocannabinoids to poly(cannabinoid)s offers a preservative effect, eliminating the production of additional cannabinoids.

[4] = nitrogen atmosphere, heated to 700° C. at 10° C./minute
[5] = heated under the same conditions after purging thoroughly with argon

Compound | Td, onset for thermal degradation according to non-isothermal TGA [1, 4] [°C] | extrapolated onset degradation temperature (TGA) ([1]; non-isothermal TGA, FIGS. 3-4) [°C] | Degradation rate from isothermal TGA ([2]; 150° C.) [weight % loss per minute] | Degradation rate from isothermal TGA ([2]; 160° C.) [weight % loss per minute] | Degradation rate from isothermal TGA ([2]; 180° C.) [weight % loss per minute] | Degradation rate from isothermal TGA ([2]; 220° C.) [weight % loss per minute] | remaining residue after heating [3] [mg] | NMR analysis of the sample residues after heating [3] | amount of by-product formation (LC/MS) [3] [%] | Δ8-THC detected using 1H NMR [3, 5] [%] | Δ9-THC detected using 1H NMR [3, 5] [%] | Td, onset for thermal degradation according to non-isothermal TGA [1] [°C] | extrapolated onset degradation temperature (TGA) [1] [°C] | NMR analysis of the sample residues after heating ([3]; listed as CBD-diacetate)
C=C(C)[C@@H]1CCC(C)=C[C@H]1c1c(O)cc(CCCCC)cc1O [CBD, cannabidiol] | 184 | 184 | 0.18 | 0.43 | 0.94 | 9.09 | 89.64 | New peaks formed; also recorded: formation of additional compounds | 10.68 | 0.21 | 0.16 |  |  | 
CCCCCc1cc(OC(C)=O)c(C/C=C(\C)CCC=C(C)C)c(OC(C)=O)c1 [CBG-Diacetate, Cannabigerol-Diacetate] | 223 |  | 0.08 | 0.11 | 0.49 | 1.92 |  |  |  |  |  |  |  | 
CCCCCc1cc(O)c(C/C=C(\C)CCC=C(C)C)c(O)c1 [CBG, cannabigerol] |  |  |  |  |  |  |  |  |  |  |  | 191 | 191 | 
C=C(C)[C@@H]1CCC(C)=C[C@H]1c1c(OC(C)=O)cc(CCCCC)cc1OC(C)=O [CBD-Diacetate, Cannabidiol-Diacetate] | 185 | 185 | 0.54 | 0.54 | 0.84 | 5.65 | 91.35 | New peaks formed | 25.32 |  |  |  |  | formation of additional compounds
